Results: patent US12344610B2, “APOL1 inhibitors and methods of use” (Maze Therapeutics, Inc., priority 2022, dated 2025)

Tests used:
Assay type in all cases: cell-based
[1] = test system: HEK293 clonal cell line overexpressing APOL1 G1; experiment: APOL1 G1 HEK293 cell rescue assay (Example B3); conditions: Homo sapiens, HEK293, HEK293 clonal line overexpressing APOL1 G1; geometric mean of at least 2 runs; † = single run; ¥ = concentration at 50% rescue estimated (no sigmoidal curve)
In short: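 HEK293 clonal line overexpressing APOL1 G1; EC50 is half-maximal reversal of APOL1-induced cell death. Values are the geometric mean of ≥2 runs on separate days, each run the average of duplicate wells. Where no sigmoidal curve could be fitted, the concentration giving 50% rescue was estimated.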

[2] = test system: Trypanosoma brucei Lister 427 VSG221 with APOL1 G0 recombinant protein; experiment: APOL1 G0 trypanosome cell rescue assay (Example B5); conditions: Trypanosoma brucei, 20 h, read-out: APOL1 G0 Trypanosome Rescue EC50, Trypanosoma brucei Lister 427 VSG221 with APOL1 G0 recombinant protein, 20 hours, CellTiter-Glo; geometric mean of at least 2 assay runs; † = single assay run
In short: (§1)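 Recombinant mature APOL1 (residues 28-398, His-tag removed, E. coli-expressed, refolded from inclusion bodies, DDM buffer) at […] added with 250 trypanosomes/well in modified HMI-9 media. Duplicate 11-point 2-fold compound series, 0.4% DMSO; 20 h at 37° C, 5% CO2, then CellTiter-Glo luminescence for viability.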

[3] = test system: Trypanosoma brucei Lister 427 VSG221 with APOL1 G1 recombinant protein; experiment: APOL1 G1 trypanosome cell rescue assay (Example B5); conditions: Trypanosoma brucei, 20 h, read-out: APOL1 G1 Trypanosome Rescue EC50, Trypanosoma brucei Lister 427 VSG221 with APOL1 G1 recombinant protein, 20 hours, CellTiter-Glo; geometric mean of at least 2 assay runs; † = single assay run
In short: as §1

[4] = test system: Trypanosoma brucei Lister 427 VSG221 with APOL1 G2 recombinant protein; experiment: APOL1 G2 trypanosome cell rescue assay (Example B5); conditions: Trypanosoma brucei, 20 h, read-out: APOL1 G2 Trypanosome Rescue EC50, Trypanosoma brucei Lister 427 VSG221 with APOL1 G2 recombinant protein, 20 hours, CellTiter-Glo; geometric mean of at least 2 assay runs; † = single assay run
In short: as §1

Structure (SMILES) | EC50 [1] [nM] | EC50 [2] [nM] | EC50 [3] [nM] | EC50 [4] [nM]
C[C@]1(O)C[C@H](N2C(=O)CCc3cc(OCCN4CCC5(CC4)C(=O)Nc4ccc(Cl)cc45)cnc32)C1 (single isomer, unassigned) [Compound 307, 5-chloro-1′-[2-({7-oxo-8-[(trans)-3-hydroxy-3-methylcyclobutyl]-5,6,7,8-tetrahydro-1,8-naphthyridin-3-yl}oxy)ethyl]-1,2-dihydrospiro[indole-3,4′-piperidin]-2-one] | 70 | 65.7 | 79.7 | 27.2
CS(=O)(=O)c1ccc(OCCN2CCC3(CC2)C(=O)N(CCO)c2ccc(Cl)cc23)cc1 [Compound 18, 5-chloro-1-(2-hydroxyethyl)-1′-[2-(4-methanesulfonylphenoxy)ethyl]-1,2-dihydrospiro[indole-3,4′-piperidin]-2-one] | 663 | 690 | 1540 | 234
COCCN1C(=O)C2(CCN(CCOc3ccc(S(C)(=O)=O)cc3)CC2)c2cc(Cl)ccc21 [Compound 20, 5-chloro-1′-[2-(4-methanesulfonylphenoxy)ethyl]-1-(2-methoxyethyl)-1,2-dihydrospiro[indole-3,4′-piperidin]-2-one] | 815 | 798 | 949 | 263
CN1C(=O)C2(CCN(CCOc3ccc(S(=O)(=O)CCCS(C)(=O)=O)cc3)CC2)c2cc(Cl)ccc21 [Compound 23, 5-chloro-1′-{2-[4-(3-methanesulfonylpropanesulfonyl)phenoxy]ethyl}-1-methyl-1,2-dihydrospiro[indole-3,4′-piperidin]-2-one] | 449 | 321 | 612 | 113
CS(=O)(=O)c1ccc(OCCN2CCC3(CC2)C(=O)N(CCO)c2ccc(Br)cc23)cc1 [Compound 24, 5-bromo-1-(2-hydroxyethyl)-1′-[2-(4-methanesulfonylphenoxy)ethyl]-1,2-dihydrospiro[indole-3,4′-piperidin]-2-one] | 609 | 513 | 759 | 163
COCCN1C(=O)C2(CCN(CCOc3ccc(S(C)(=O)=O)cc3)CC2)c2cc(C#N)ccc21 [Compound 25, 1′-[2-(4-methanesulfonylphenoxy)ethyl]-1-(2-methoxyethyl)-2-oxo-1,2-dihydrospiro[indole-3,4′-piperidine]-5-carbonitrile] | ~8300 | > 4000 | > 4000 | 1230
CS(=O)(=O)c1ccc(OCCN2CCCC3(CC2)C(=O)Nc2ccccc23)cc1 (stereo not shown) [Compound 26, 1-(2-(4-(methylsulfonyl)phenoxy)ethyl)spiro[azepane-4,3′-indolin]-2′-one] | ~10900 | > 4000 | > 4000 | > 4000
CN1C(=O)CCc2cc(OCCN3CCC4(CC3)C(=O)Nc3ccc(Cl)cc34)ccc21 [Compound 27, 5-chloro-1′-[2-[(1-methyl-2-oxo-3,4-dihydroquinolin-6-yl)oxy]ethyl]spiro[indoline-3,4′-piperidine]-2-one] | 186 | 201 | 269 | 66.3
O=C1CCc2cc(OCCN3CCC4(CC3)C(=O)Nc3ccc(Cl)cc34)cnc2N1CCO [Compound 192, 5-chloro-1′-(2-{[8-(2-hydroxyethyl)-7-oxo-5,6,7,8-tetrahydro-1,8-naphthyridin-3-yl]oxy}ethyl)-1,2-dihydrospiro[indole-3,4′-piperidin]-2-one] | 126 | 108 | 142 | 49.1
CC(=O)N(C)CCS(=O)(=O)c1ccc(OCCN2CCC3(CC2)C(=O)Nc2ccc(Cl)cc23)cc1 [Compound 193, N-{2-[4-(2-{5-chloro-2-oxo-1,2-dihydrosiro[indole-3,4′-piperidin]-1′-yl}ethoxy)benzenesulfonyl]ethyl}-N-methylacetamide] | 377 | 200 | 288 | 70.2
CS(=O)(=O)C1(c2ccc(OCCN3CCC4(CC3)C(=O)Nc3ccc(Cl)cc34)cc2)COC1 [Compound 195, 5-chloro-1′-{2-[4-(3-methanesulfonyloxetan-3-yl)phenoxy]ethyl}-1,2-dihydrospiro[indole-3,4′-piperidin]-2-one] | 72 | 48.2 | 74.4 | 19.8
O=C1Nc2ccc(Cl)cc2C12CCN(CCOc1ccc3c(c1)CCS3(=O)=O)CC2 [Compound 196, 5-(2-{5-chloro-2-oxo-1,2-dihydrospiro[indole-3,4′-piperidin]-1′-yl}ethoxy)-2,3-dihydro-1λ^6-benzothiophene-1,1-dione] | 207 | 160 | 185 | 60.3
CS(=O)(=O)c1ccc(OCCN2CCC3(CC2)C(=O)Nc2ccc(Cl)cc23)cc1C(F)F [Compound 197, 5-chloro-1′-{2-[3-(difluoromethyl)-4-methanesulfonylphenoxy]ethyl}-1,2-dihydrospiro[indole-3,4′-piperidin]-2-one] | 69.5 | 30.3 | 193 | 10.6
O=C1Nc2ccc(Cl)cc2C12CCN(CCOc1ccc(S(=O)(=O)CCO)cc1)CC2 [Compound 198, 5-chloro-1′-{2-[4-(2-hydroxyethanesulfonyl)phenoxy)ethyl}-1,2-dihydrospiro[indole-3,4′-piperidin]-2-one] | 203 | 107 | 142 | 41.9
CS(=O)(=O)Nc1ccc(OCCN2CCC3(CC2)C(=O)Nc2ccc(Cl)cc23)cc1 [Compound 214, N-[4-(2-{5-chloro-2-oxo-1,2-dihydrospiro[indole-3,4′-piperidin]-1′-yl}ethoxy)phenyl]methanesulfonamide] | 169 | 250 | 430 | 88.7
O=C1Nc2ccc(Cl)cc2C12CCN(CCOc1ccc(S(=O)(=O)[C@H]3C[C@H](O)C3)cc1)CC2 [Compound 215, 5-chloro-1′-[2-(4-{[(trans)-3-hydroxycyclobutyl]sulfonyl}phenoxy)ethyl]-1,2-dihydrospiro[indole-3,4′-piperidin]-2-one] | 122 | 70.1 | 97 | 22.4
CS(=O)(=O)c1ccc(OCCN2CCC3(CC2)C(=O)Nc2ccc(Cl)cc23)cc1C(O)CO (stereo not shown) [Compound 216, 5-chloro-1′-{2-[3-(1,2-dihydroxyethyl)-4-methanesulfonylphenoxy]ethyl}-1,2-dihydrospiro[indole-3,4′-piperidin]-2-one] | ~1000 | 629 | 912 | 231
O=C1CCc2cc(OCCN3CCC4(CC3)C(=O)Nc3ccc(Cl)cc34)ccc2N1[C@H]1C[C@H](O)C1 [Compound 224, 5-chloro-1′-[2-({2-oxo-1-[(trans)-3-hydroxycyclobutyl]-1,2,3,4-tetrahydroquinolin-6-yl}oxy)ethyl]-1,2-dihydrospiro[indole-3,4′-piperidin]-2-one] | 155 | 66 | 92.8 | 32.7
O=C1Nc2ccc(Cl)cc2C12CCN(CCOc1ccc(S(=O)(=O)C3(CO)CC3)cc1)CC2 [Compound 225, 5-chloro-1′-[2-(4-{[1-(hydroxymethyl)cyclopropyl]sulfonyl}phenoxy)ethyl]-1,2-dihydrospiro[indole-3,4′-piperidin]-2-one] | 51.7 | 35.2 | 50.8 | 12.9
CNC(=O)C1(S(=O)(=O)c2ccc(OCCN3CCC4(CC3)C(=O)Nc3ccc(Cl)cc34)cc2)CC1 [Compound 226, 1-[4-(2-{5-chloro-2-oxo-1,2-dihydrospiro[indole-3,4′-piperidin]-1′-yl}ethoxy)benzenesulfonyl]-N-methylcyclopropane-1-carboxamide] | 138 | 80 | 112 | 36
CN(C)C(=O)C1(S(=O)(=O)c2ccc(OCCN3CCC4(CC3)C(=O)Nc3ccc(Cl)cc34)cc2)CC1 [Compound 227, 1-[4-(2-{5-chloro-2-oxo-1,2-dihydrospiro[indole-3,4′-piperidin]-1′-yl}ethoxy)benzenesulfonyl]-N,N-dimethylcyclopropane-1-carboxamide] | 210 | 142 | 248 | 61.6
O=C1Nc2ccc(Cl)cc2C12CCN(CCOc1ccc(S(=O)(=O)C3(C(=O)N4CCC4)CC3)cc1)CC2 [Compound 228, 1′-[2-(4-{[1-(azetidine-1-carbonyl)cyclopropyl]sulfonyl}phenoxy)ethyl]-5-chloro-1,2-dihydrospiro[indole-3,4′-piperidin]-2-one] | 426 | 196 | 363 | 86.2
